# Test results reported in patent US10398142B2, “Polycationic amphiphiles as antimicrobial agents” (priority 2013, dated 2019).
# Like-named read-outs stand apart in the source and are kept apart here. Marks after values point to notes of the source that are not given here.
# Columns and labels:
# [1] = tested on: E. faecalis biofilms; test: Minimum biofilm eradication concentration (MBEC), regrowth assay; format: cell-based, Enterococcus faecalis
# Method in brief: (§1)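 Static 24 h biofilms at 37° C. (BHI for S. aureus, Todd Hewitt for E. faecalis), then 16 h compound exposure, PBS washes and overnight regrowth in fresh media. MBEC is the lowest concentration giving final OD595 below 0.1; four replicates per concentration.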
# [2] = tested on: S. aureus (MSSA, SH1000) biofilms; test: as above; format: cell-based, Staphylococcus aureus; details: for MBEC MSSA: Table 5, SH1000
# Method in brief: as §1
# [3] = tested on: CA-MRSA (USA300-0114); test: Minimum inhibitory concentration (MIC), broth microdilution; format: cell-based, Staphylococcus aureus
# Protocol: (§2) Different biological assays were performed. […] All cultures, with the exception of E. faecalis, were grown with shaking at 250 rpm.
# (§3) Minimum inhibitory concentration (MIC) values against bacteria were measured using standard method. Compounds were serially diluted two-fold from an aqueous stock solution to yield twelve test concentrations. Overnight S. aureus, E. faecalis, E. coli, P. aeruginosa, CA-MRSA, and HA-MRSA cultures diluted to ca. 10^6 cfu/mL in Mueller-Hinton media and 100 μL were inoculated into each well of a U-bottom 96-well plate (BD Biosciences, BD351177) containing 100 μL of compound solution. Plates were incubated statically at 37° C. for 72 hours upon which time wells were evaluated visually for bacterial growth. The MIC was determined as the lowest concentration of compound resulting in no bacterial growth visible to the naked eye, based on the majority of three independent experiments. Positive and negative aqueous and media controls were conducted for each trial.
# [4] = tested on: HA-MRSA (ATCC 33591); test: as above; format: cell-based, Staphylococcus aureus
# Protocol: as §2, §3
# [5] = tested on: Escherichia coli (MC4100); test: as above; format: cell-based; details: read-out: MIC E. coli
# Method in brief: (§4)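 Broth microdilution: two-fold serial dilutions (twelve concentrations) mixed 1:1 with overnight cultures diluted to ca. 10^6 cfu/mL in Mueller-Hinton media, incubated statically at 37° C for 72 hours. MIC is lowest concentration with no growth visible to the naked eye, majority of three independent experiments.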
# [6] = tested on: Staphylococcus aureus MSSA (SH1000); test: as above; format: cell-based
# Method in brief: as §4
# [7] = tested on: Pseudomonas aeruginosa (PAO1); test: as above; format: cell-based; details: read-out: MIC P. aeruginosa
# Method in brief: as §4
# [8] = tested on: Enterococcus faecalis (OG1RF); test: as above; format: cell-based; details: read-out: MIC E. faecalis
# Method in brief: as §4
# [9] = tested on: red blood cells (defibrinated sheep blood); test: Hemolysis assay (Lysis20); details: Table 4; concentration at which less than 20% of red blood cells are lysed
# Protocol: Hemolysis assays (Lysis20) were performed according to the procedure detailed in Peng, L., DeSousa, J., Su, Z., Novak, B. M., Nevzorov, A. A., Garland, E. R., and Melander, C., Inhibition of Acinetobacter baumannii biofilm formation on a methacrylate polymer containing a 2-aminoimidazole subunit, Chem. Comm. 2011, 47, 4896-4898. Defibrinated sheep blood was purchased from Hemostat Labs (DSB 100). Compounds representative of each class were serially diluted in sterile PBS from aqueous stock solutions and incubated with resuspended blood cells. The OD of the final suspensions were measured directly using plate reader. TritonX (1% by volume) served as a positive control (100% lysis marker) and sterile PBS served as a negative control (0% lysis marker).
# Lysis20 indicates the concentration of compound (in μM) at which less than 20% of red blood cells are lysed.
# [10] = tested on: CA-MRSA (USA300-0114) biofilms; test: Minimum biofilm eradication concentration (MBEC), regrowth assay; format: cell-based, Staphylococcus aureus; details: for MBEC CA-MRSA: Table 5, USA300-0114
# Protocol: A regrowth assay was used to establish the MBEC of a compound to evaluate the antibiofilm activity. See also H. Ceri, M. Olson, D. Morck, D. Storey, R. Read, A. Buret, B. Olson, Methods Enzymol. 2001, 337, 377.
# Different biological assays were performed. For all biological assays, laboratory strains of methicillin-susceptible Staphylococcus aureus MSSA (SH1000), Enterococcus faecalis (OG1RF), Escherichia coli (MC4100), Pseudomonas aeruginosa (PAO1), community-acquired methicillin-resistant Staphylococcus aureus CA-MRSA (USA300-0114), and hospital-acquired methicillin-resistant Staphylococcus aureus HA-MRSA (ATCC 33591) were grown at 37° C. overnight from freezer stocks in 10 mL of the media indicated for each assay. All cultures, with the exception of E. faecalis, were grown with shaking at 250 rpm.
# Minimum biofilm eradication concentration (MBEC) was also measured. To each well of a flat-bottomed 96-well plate (Corning 3370), 8 μL of overnight bacterial culture was brought to a volume of 200 μL with fresh media (BHI for S. aureus and MRSA, Todd Hewitt (TH) for E. faecalis). Plates were incubated statically for 24 hours at 37° C. to establish biofilms. After 24 hours, the wells were carefully emptied by inverting the plate and gently shaking. A pre-mixed solution of media and aqueous compound stock solution was added to each well and plates were incubated at 37° C. 16 hours after pre-established biofilms were treated with compound, the media from each well was removed, biofilms were washed three times with 200 μL PBS to remove planktonic cells, and biofilms were incubated overnight at 37° C. in 200 μL of fresh media to allow any viable cells to continue growing. The wells were then vigorously pipetted to resuspend the biofilm cells and the OD at 595 nm was measured using a plate reader (POLARstar Omega, BMG Labtech). Biofilms reaching a final OD of less than 0.1 were considered eradicated and the lowest concentration of antibiotic corresponded to the MBEC. Four replicates were completed for each concentration of compound as well as positive and negative controls.
# [11] = Table 4, USA300-0114, read-out: MIC CA-MRSA
# [12] = Table 4, ATCC 33591, read-out: MIC HA-MRSA
# [13] = Table 3, read-out: MIC S. aureus
# [14] = Table 4, SH1000, read-out: MIC MSSA
# [15] = table for compound (12,3,11-SH,3,12)
# [16] = Table 2, pre-established biofilm, ± values varied between 50 and 100 μM for the six trials
structure (smiles),measurement,setting,value
"CCCCCCCCCCCC[N+](C)(C)CCC[N+](C)(CCCC)CCC[N+](C)(C)CCCCCCCCCCCC.[Br-].[Br-].[Br-] [12,3,4,3,12]",MBEC E. faecalis,[1]; Table 5,50 µM
same,MBEC MSSA,[2],75 ± 25 µM
same,MIC,[3]; [11],0.5 µM
same,MIC,[4]; [12],0.5 µM
same,MIC,[5]; Table 3,1 µM
same,MIC,[6]; [13],1 µM
same,MIC,[6]; [14],1 µM
same,MIC,[7]; Table 3,2 µM
same,MIC,[8]; Table 3,1 µM
same,Lysis20,[9],8 µM
same,MBEC CA-MRSA,[10],75 ± 25 µM
"CCCCCCCCCCCC[N+](C)(C)CC[CH-][N+](C)(CCCCCCCCCCCS)CCC[N+](C)(C)CCCCCCCCCCCC (stereo not shown) [12,3,11-SH,3,12]",MBEC E. faecalis,[1]; Table 5,>200 µM
same,MBEC E. faecalis,[1]; [15],>200 µM
same,MBEC MSSA,[2],200 µM
same,MBEC S. aureus,[2]; [15],200 µM
same,MIC,"[3]; Staphylococcus aureus, Table 4, USA300-0114, read-out: MIC CA-MRSA",2 µM
same,MIC,"[3]; Staphylococcus aureus, table for compound (12,3,11-SH,3,12), read-out: MIC USA300-0114",2 µM
same,MIC,"[4]; Staphylococcus aureus, Table 4, ATCC 33591, read-out: MIC HA-MRSA",2 µM
same,MIC,"[4]; Staphylococcus aureus, table for compound (12,3,11-SH,3,12), read-out: MIC ATCC 33591",2 µM
same,MIC,"[5]; Escherichia coli, table for compound (12,3,11-SH,3,12)",2 µM
same,MIC,"[6]; Staphylococcus aureus, MSSA, Table 4, SH1000, read-out: MIC MSSA",2 µM
same,MIC,"[6]; Staphylococcus aureus, MSSA, table for compound (12,3,11-SH,3,12), read-out: MIC S. aureus",2 µM
same,MIC,"[7]; Pseudomonas aeruginosa, PAO1, table for compound (12,3,11-SH,3,12)",8 µM
same,MIC,"[8]; Enterococcus faecalis, table for compound (12,3,11-SH,3,12)",2 µM
same,Lysis20,[9],16 µM
same,MBEC CA-MRSA,[10],>200 µM
same,MBEC USA300-0114,[10]; [15],>200 µM
"CCCCCCCCCCCC[N+](C)(C)CCC[N+](C)(CCCCCCCCCCCC)CCC[N+](C)(C)CCCCCCCCCCCC.[Br-].[Br-].[Br-] [12,3,12,3,12]",MBEC E. faecalis,[1]; Table 5,200 µM
same,MBEC MSSA,[2],100 µM
same,MIC,[3]; [11],1 µM
same,MIC,[4]; [12],1 µM
same,MIC,[5]; Table 3,1 µM
same,MIC,[6]; [13],0.5 µM
same,MIC,[6]; [14],0.5 µM
same,MIC,[7]; Table 3,4 µM
same,MIC,[8]; Table 3,1 µM
same,Lysis20,[9],4 µM
same,MBEC CA-MRSA,[10],>200 µM
"CCCCCCCCCCCC[N+](C)(C)CCC[N+](C)(CCC[N+](C)(C)CCCCCCCCCCCC)Cc1ccccc1.[Br-].[Br-].[Br-] [12,3,Bn,3,12]",MBEC E. faecalis,[1]; Table 5,100 µM
same,MBEC MSSA,[2],100 µM
same,MIC,[3]; [11],1 µM
same,MIC,[4]; [12],1 µM
same,MIC,[5]; Table 3,1 µM
same,MIC,[6]; [13],1 µM
same,MIC,[6]; [14],2 µM
same,MIC,[7]; Table 3,2 µM
same,MIC,[8]; Table 3,1 µM
same,Lysis20,[9],8 µM
same,MBEC CA-MRSA,[10],200 µM
"CCCCCCCCCCCC[N+](C)(C)CCC[N+](C)(CCC[N+](C)(C)CCCCCCCCCCCC)Cc1ccc(CCCCCCCC)cc1.[Br-].[Br-].[Br-] [12,3,Bn-8,3,12]",MBEC E. faecalis,[1]; Table 5,200 µM
same,MBEC MSSA,[2],200 µM
same,MIC,[3]; [11],2 µM
same,MIC,[4]; [12],1 µM
same,MIC,[5]; Table 3,1 µM
same,MIC,[6]; [13],1 µM
same,MIC,[6]; [14],2 µM
same,MIC,[7]; Table 3,4 µM
same,MIC,[8]; Table 3,1 µM
same,Lysis20,[9],8 µM
same,MBEC CA-MRSA,[10],>200 µM
"CCCCCCCCCCCC[N+](C)(C)CCCCC[N+](C)(C)CCCCCCCCCCCC.[Br-].[Br-] [12,5,12]",MBEC E. faecalis,[1]; [16],75 ± 25^a μM
same,MBEC E. faecalis,[1]; Table 5,100 µM
same,MBEC S. aureus,[2]; [16],75 ± 25^a μM
same,MBEC MSSA,[2],50 µM
same,MIC,[3]; [11],1 µM
same,MIC,[4]; [12],0.5 µM
same,MIC,[5]; Table 1,1 µM
same,MIC,[5]; Table 3,1 µM
same,MIC,"[6]; Table 1, read-out: MIC S. aureus",1 µM
same,MIC,[6]; [13],2 µM
same,MIC,[6]; [14],2 µM
same,MIC,[7]; Table 1,4 µM
same,MIC,[7]; Table 3,2 µM
same,MIC,[8]; Table 1,1 µM
same,MIC,[8]; Table 3,1 µM
same,Lysis20,[9],8 µM
same,MBEC CA-MRSA,[10],100 µM
"CCCCCCCCCCCCCCCC[N+](C)(C)CCCCC[N+](C)(C)CCCCCCCCCCCCCCCC.[Br-].[Br-] [16,5,16]",MBEC E. faecalis,[1]; Table 5,≥200 µM
same,MBEC MSSA,[2],200 µM
same,MIC,[3]; [11],8 µM
same,MIC,[4]; [12],1 µM
same,MIC,[5]; Table 3,16 µM
same,MIC,[6]; [13],2 µM
same,MIC,[6]; [14],2 µM
same,MIC,[7]; Table 3,32 µM
same,MIC,[8]; Table 3,2 µM
same,Lysis20,[9],4 µM
same,MBEC CA-MRSA,[10],>200 µM
